Test results: patent publication US20210198277A1, “AMINE-SUBSTITUTED ARYL OR HETEROARYL COMPOUNDS” (Epizyme, Inc., priority 2016, published 2021)

These compounds were tested against T1, EHMT2 (Homo sapiens, UniProt Q96KQ7) (assay: MDA-MB-231 H3K9me2 in-cell Western assay (EHMT2 ICW)). Settings: Table II; MDA-MB-231 H3K9me2 in-cell Western; read-out: EHMT2 ICW (IC50 μM).
T1 construct: host or cells: MDA-MB-231
T1 sequence (Q96KQ7 1-1210): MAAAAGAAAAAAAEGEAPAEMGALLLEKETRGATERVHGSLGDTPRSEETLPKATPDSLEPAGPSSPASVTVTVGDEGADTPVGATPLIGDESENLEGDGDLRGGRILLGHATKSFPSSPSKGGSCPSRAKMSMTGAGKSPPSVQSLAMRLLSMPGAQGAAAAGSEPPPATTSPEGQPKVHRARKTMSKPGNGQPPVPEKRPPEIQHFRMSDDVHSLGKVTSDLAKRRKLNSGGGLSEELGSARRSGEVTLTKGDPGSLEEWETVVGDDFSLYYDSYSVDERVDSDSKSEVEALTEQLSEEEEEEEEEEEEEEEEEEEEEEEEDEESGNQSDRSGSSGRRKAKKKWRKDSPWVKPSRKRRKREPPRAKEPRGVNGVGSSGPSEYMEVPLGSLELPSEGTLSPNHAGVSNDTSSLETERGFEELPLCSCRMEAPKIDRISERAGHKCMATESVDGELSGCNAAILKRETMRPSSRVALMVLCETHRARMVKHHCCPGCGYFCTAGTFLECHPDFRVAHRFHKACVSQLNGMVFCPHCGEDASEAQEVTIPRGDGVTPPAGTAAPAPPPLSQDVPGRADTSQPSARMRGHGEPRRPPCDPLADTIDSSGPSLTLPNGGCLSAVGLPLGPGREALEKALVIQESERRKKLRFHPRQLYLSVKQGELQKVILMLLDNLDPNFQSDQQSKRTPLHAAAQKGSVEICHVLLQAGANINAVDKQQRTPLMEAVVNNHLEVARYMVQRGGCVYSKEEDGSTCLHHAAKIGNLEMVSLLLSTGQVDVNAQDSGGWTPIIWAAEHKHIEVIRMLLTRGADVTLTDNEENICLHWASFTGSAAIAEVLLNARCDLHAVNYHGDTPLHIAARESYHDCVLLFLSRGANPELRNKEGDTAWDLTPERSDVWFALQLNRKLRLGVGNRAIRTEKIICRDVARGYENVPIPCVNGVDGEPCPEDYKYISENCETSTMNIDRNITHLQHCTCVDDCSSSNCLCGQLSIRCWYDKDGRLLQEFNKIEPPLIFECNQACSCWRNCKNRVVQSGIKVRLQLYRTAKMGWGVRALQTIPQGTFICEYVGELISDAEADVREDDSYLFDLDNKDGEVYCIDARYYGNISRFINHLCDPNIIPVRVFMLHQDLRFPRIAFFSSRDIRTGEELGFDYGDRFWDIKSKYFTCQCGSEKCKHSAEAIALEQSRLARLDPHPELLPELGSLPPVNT
Type: cell-based
Excerpt: RPMI/Glutamax medium, Penicillin-Streptomycin, Heat Inactivated Fetal Bovine Serum, and D-PBS were purchased from Life Technologies (Grand Island, N.Y., USA). Odyssey blocking buffer, 800CW goat anti-mouse IgG (H+L) antibody, and Licor Odyssey Infrared Scanner were purchased from Licor Biosciences, Lincoln, Nebr., USA. […] 16% Paraformaldehyde was purchased from Electron Microscopy Sciences, Hatfield, Pa., USA).MDA-MB-231 cells were maintained in complete growth medium (RPMI supplemented with 10% v/v heat inactivated fetal bovine serum) and cultured at 37° C. under 5% CO2. UNC0638 was purchased from Sigma-Aldrich (St. Louis, Mo., USA).
Compound (100 nL) was added directly to 384-well cell plate. MDA-MB-231 cells (ATCC) were seeded in assay medium (RPMI/Glutamax supplemented with 10% v/v heat inactivated fetal bovine serum and 1% Penicillin/Streptomycin, Life Technologies) at a concentration of 3,000 cells per well to a Poly-D-Lysine coated 384-well cell culture plate with 50 μL per well. […] Plates were incubated at room temperature for 30 minutes and then incubated at 37° C., 5% CO2 for additional 48 hours. After the incubation, 50 μL per well of 8% paraformaldehyde (Electron Microscopy Sciences) in PBS was added to the plates and incubated at room temperature for 20 minutes. […] Next, 60 μL per well of Odyssey blocking buffer (Licor Biosciences) was added to each plate and incubated for 1 hour at room temperature. Blocking buffer was removed and 20 μL of monoclonal primary antibody α-H3K9me2 (Abcam) diluted 1:800 in Odyssey buffer with 0.1% Tween 20 (v/v) were added and plates were incubated overnight (16 hours) at 4° C. Plates were washed 5 times with 100 μL per well of wash buffer. Next 20 μL per well of secondary antibody was added (1:500 800CW donkey anti-mouse IgG (H+L) antibody (Licor Biosciences), 1:1000 DRAQ5 (Cell Signaling Technology) in Odyssey buffer with 0.1% Tween 20 (v/v)) and incubated for 1 hour at room temperature. The plates were washed 5 times with 100 μL per well wash buffer then 2 times with 100 μL per well of water. Plates were allowed to dry at room temperature then imaged on a Licor Odyssey Infrared Scanner (Licor Biosciences) which measured integrated intensity at 700 nm and 800 nm wavelengths. Both 700 and 800 channels were scanned.
First, the ratio for each well was determined by:
The average of the ratio values for each well was calculated and used to determine the percent inhibition for each test well in the plate. Control compound was serially diluted three-fold in DMSO for a total of 10 test concentrations beginning at 1 μM. Percent inhibition was calculated as: […]
IC50 curves were generated using triplicate wells per concentration of compound. […] IC50 values were calculated using a non-linear regression (variable slope-four parameter fit model) with by the following formula: […]

| SMILES | IC50 [µM] |
| --- | --- |
| COc1ccc(N(C)c2nccc(NCC3CCN(C(C)=O)CC3)n2)cc1OCCCN1CCCC1 [Compound 158] | > 10 |
| COc1ccc(Nc2nccc(NCC3CCN(C)CC3)n2)cc1OCCCNc1ccccc1 [Compound 159] | 1 to 10 |
| COc1ccc(Nc2nccc(NCC3CCN(C(C)=O)CC3)n2)cc1OCCCNc1ccccc1 [Compound 160] | > 10 |
| COc1ccc(Nc2nccc(N3CCC(NC(C)=O)CC3)n2)cc1OCCCN1CCCC1 [Compound 161] | > 10 |
| COc1ccc(Nc2nccc(N3CCN(S(C)(=O)=O)CC3)n2)cc1OCCCN1CCCC1 [Compound 162] | > 10 |
| COc1ccc(Nc2cc(N(C)CC3CCN(C(C)=O)CC3)ccn2)cc1OCCCN1CCCC1 [Compound 163] | > 10 |
| COc1ccc(Nc2nccc(NCc3ccc4[nH]ncc4c3)n2)cc1OCCCN1CCCC1 [Compound 164] | > 10 |
| COc1ccc(Nc2nccc(NCc3ccc(=O)[nH]c3)n2)cc1OCCCN1CCCC1 [Compound 165] | > 10 |
| COc1ccc(Nc2nccc(NCC3CCN(C(C)=O)CC3)n2)cc1OCCC(=O)N1CCCC1 [Compound 166] | > 10 |
| COc1ccc(Nc2nccc(NCCc3ccccn3)n2)cc1OCCCN1CCCC1 [Compound 167] | 0.1 to 1 |
| COc1ccc(Nc2nccc(N3CCN(c4ccccn4)CC3)n2)cc1OCCCN1CCCC1 [Compound 168] | 1 to 10 |
| COc1ccc(Nc2nccc(N3CCS(=O)(=O)CC3)n2)cc1OCCCN1CCCC1 [Compound 169] | > 10 |
| COc1ccc(Nc2nccc(N3CC(C(=O)N(C)C)C3)n2)cc1OCCCN1CCCC1 [Compound 170] | > 10 |
| COc1ccc(Nc2nccc(N(C)C)n2)cc1OCCCN1CCCC1 [Compound 171] | 1 to 10 |
| COc1ccc(Nc2nccc(N(C)CC3CCN(C(C)=O)CC3)n2)cc1OCCCN1CCCC1 [Compound 172] | > 10 |
| COc1ccc(Nc2cc(OCC3CCN(C(C)=O)CC3)ccn2)cc1OCCCN1CCCC1 [Compound 173] | > 10 |
| COc1ccc(Nc2nccc(C)n2)cc1OCCCN1CCCC1 [Compound 174] | > 10 |
| COc1ccc(Nc2nc(C)cc(C)n2)cc1OCCCN1CCCC1 [Compound 175] | > 10 |
| CNc1cccc(Nc2ccc(OC)c(OCCCN3CCCC3)c2)n1 [Compound 176] | > 10 |
| COCCN(C)c1ccnc(Nc2ccc(OC)c(OCCCN3CCCC3)c2)n1 [Compound 177] | > 10 |
| COc1ccc(Nc2nccc(NCCC3CCOCC3)n2)cc1OCCCN1CCCC1 [Compound 178] | 0.1 to 1 |
| COc1ccc(Nc2nccc(N3CC(C(N)=O)C3)n2)cc1OCCCN1CCCC1 [Compound 179] | > 10 |
| COc1ccc(Nc2nccc(-n3cc(C)cn3)n2)cc1OCCCN1CCCC1 [Compound 180] | > 10 |
| COc1ccc(Nc2ncc(CO)cn2)cc1OCCCN1CCCC1 [Compound 181] | > 10 |
| COc1cnc(Nc2cc(NCC3CCN(C(C)=O)CC3)ccn2)cc1OCCCN1CCCC1 [Compound 182] | > 10 |

Now from value to compound:

| IC50 [µM] | SMILES |
| --- | --- |
| 1 to 10 | COc1ccc(Nc2nccc(NCC3CCN(C(C)=O)CC3)n2)cc1OCC(C)CN1CCCC1 (centres unmarked) [Compound 183] |
| > 10 | COc1ccc(Nc2cncc(NCC3CCN(C(C)=O)CC3)c2)cc1OCCCN1CCCC1 [Compound 184] |
| > 10 | COc1ccc(Nc2cc(NCC3CCN(C(C)=O)CC3)cnn2)cc1OCCCN1CCCC1 [Compound 185] |
| 0.1 to 1 | CNc1cc(C)nc(Nc2ccc(OC)c(OCCCN3CC[C@@H](F)C3)c2)n1 [Compound 186] |
| 1 to 10 | CNc1nc(Nc2ccc(OC)c(OCCCN3CCCC3)c2)ncc1F [Compound 187] |
| > 10 | CNc1cc(Nc2ccc(OC)c(OCCCN3CCCC3)c2)cnn1 [Compound 188] |
| 0.1 to 1 | COc1ccc(Nc2nccc(NCc3ccc4nccn4c3)n2)cc1OCCCN1CCCC1 [Compound 191] |
| 1 to 10 | COc1ccc(Nc2nccc(NC3CN(C(C)=O)C3)n2)cc1OCCCN1CCCC1 [Compound 192] |
| 0.1 to 1 | COc1ccc(Nc2nccc(NCCn3cccn3)n2)cc1OCCCN1CCCC1 [Compound 193] |
| 1 to 10 | COc1ccc(Nc2nccc(NCC3CCN(C(C)=O)CC3)n2)cc1OC(C)CCN1CCCC1 (centres unmarked) [Compound 195] |
| 1 to 10 | COc1ccc(Nc2nccc(NCC3CCN(S(C)(=O)=O)CC3)n2)cc1OCCCN1CCCC1 [Compound 199] |
| 0.1 to 1 | CCOC(=O)N1CCC(CNc2ccnc(Nc3ccc(OC)c(OCCCN4CCCC4)c3)n2)CC1 [Compound 203] |
| > 10 | COc1ccc(Nc2nccc(NCC3CCOCC3)n2)cc1OCCN1CCOCC1 [Compound 204] |
